# Results: publication PMC11249646, “Small-Molecule Disruptors of the Interaction between Calcium- and Integrin-Binding Protein 1 and Integrin αIIbβ3 as Novel Antiplatelet Agents” (ACS Pharmacology & Translational Science, 2024)
# Like-named read-outs stand apart in the source and are kept apart here.
# Columns and labels:
# [1] = molecular target: T1, GST-CIB1 : F-scrambled peptide (Homo sapiens, UniProt Q99828); experiment: FP scrambled-peptide counter screen, 1536-well format; format: binding; conditions: for IC50: read-out: IC50 [μM] (counterscreen)
# T1 construct: made in house; host or cells: BL-21 plus RIL cells (E. coli)
# T1 sequence (Q99828 1-191): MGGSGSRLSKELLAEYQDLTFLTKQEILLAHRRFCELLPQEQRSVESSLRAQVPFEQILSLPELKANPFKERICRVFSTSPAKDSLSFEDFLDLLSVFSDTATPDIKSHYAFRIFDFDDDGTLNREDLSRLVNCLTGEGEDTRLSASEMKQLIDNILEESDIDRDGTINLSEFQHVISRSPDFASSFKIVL
# [2] = molecular target: T2, CIB1 and αIIb interaction (CIB1-GST : F-αIIb peptide) (Homo sapiens, UniProt Q99828); experiment: FP assay, 1536-well qHTS format (primary and confirmatory screen); format: binding
# T2 construct: made in house; host or cells: BL-21 plus RIL cells (E. coli)
# T2 sequence (Q99828 1-191): T1 sequence (Q99828 1-191)
# [3] = Table S3, counterscreen, negative = inhibition
# [4] = Table S3, confirmatory screen, qHTS curve class, a negative sign marks inhibitory curves
# [5] = Table S3, confirmatory screen, negative = inhibition
# [6] = qHTS primary screen hits, Table S2, negative = inhibition
# [7] = qHTS primary screen hits, Table S2, negative sign = inhibitory curve, several classes where COUNT > 1
# [8] = qHTS primary screen hits, Table S2, read-out: IC50
# [9] = counterscreen, qHTS curve class, negative sign = inhibitory curve
# [10] = confirmatory screen, qHTS curve class, negative sign = inhibitory curve
# [11] = confirmatory screen, read-out: IC50 [μM] (confirmatory screen)
# [12] = qHTS FP screen hits, Table S2, negative = inhibition
# [13] = qHTS FP screen hits, Table S2, one class per curve where COUNT > 1, negative sign = inhibitory curve
# [14] = qHTS FP screen hits, Table S2, read-out: IC50
# [15] = Table S3, counterscreen, qHTS curve class, a negative sign marks inhibitory curves
# [16] = qHTS primary screen of LOPAC/NPACT libraries, negative = inhibition
# [17] = qHTS primary screen of LOPAC/NPACT libraries, negative sign = inhibitory curve
# [18] = qHTS primary screen of LOPAC/NPACT libraries, read-out: IC50
compound,measurement,setting,value
Cc1ccc(S(=O)(=O)Nc2ccc(Br)cc2C(=O)Nc2nc(-c3ccccc3)cs2)cc1.O=C(O)C(F)(F)F [NCGC00262989-01],Efficacy (%) (counterscreen),[1]; [3],243%
same,IC50,"[1]; Table S3, counterscreen",35.5 µM
same,Curve Class (confirmatory screen),[2]; [4],2.4
same,Efficacy (%) (confirmatory screen),[2]; [5],47%
same,Efficacy (%),[2]; [6],-26%
same,Curve Class,[2]; [7],-2.4
same,IC50,[2]; [8],20 µM
COP(=S)(OC)SCN1C(=O)c2ccccc2C1=O [NCGC00080392-05],Efficacy (%) (counterscreen),[1]; counterscreen,-33%
same,Curve Class (counterscreen),[1]; [9],-2.4
same,IC50,[1]; counterscreen,44.7 µM
same,Efficacy (%) (confirmatory screen),[2]; confirmatory screen,-50%
same,Confirm? (confirmatory screen),"[2]; confirmatory screen, YES/NO",YES
same,Curve Class (confirmatory screen),[2]; [10],-2.2
same,IC50,[2]; [11],50.1 µM
same,Efficacy (%),[2]; [12],-50%
same,Curve Class,[2]; [13],-1.2
same,IC50,[2]; [14],17.8 µM
Cc1coc2c1C(=O)C(=O)c1c-2ccc2c(C)cccc12 [NCGC00247624-03],Efficacy (%) (counterscreen),[1]; counterscreen,-73%
same,Curve Class (counterscreen),[1]; [9],-2.2
same,IC50,[1]; counterscreen,44.7 µM
same,Efficacy (%) (confirmatory screen),[2]; confirmatory screen,-85%
same,Confirm? (confirmatory screen),"[2]; confirmatory screen, YES/NO",YES
same,Curve Class (confirmatory screen),[2]; [10],-2.2
same,Efficacy (%),[2]; [12],-40%
same,Curve Class,[2]; [13],-2.2
same,IC50,[2]; [14],39.8 µM
O=C(O)C(F)(F)F.O=C1Nc2ccccc2/C1=N/NC(=S)NCc1ccccc1 [NCGC00229543-01],Curve Class (counterscreen),[1]; [15],4
same,Efficacy (%) (counterscreen),[1]; [3],-27%
same,Curve Class (confirmatory screen),[2]; [4],4
same,Efficacy (%) (confirmatory screen),[2]; [5],-33%
same,Efficacy (%),[2]; [6],-24%
same,Curve Class,[2]; [7],-1.4
same,IC50,[2]; [8],7.9 µM
NC(=O)c1ccnc2c(O)cccc12.O=C(O)C(F)(F)F [NCGC00183783-01],Efficacy (%) (counterscreen),[1]; counterscreen,-17%
same,Confirm? (counterscreen),"[1]; counterscreen, YES/NO",YES
same,Curve Class (counterscreen),[1]; [9],4
same,Efficacy (%) (confirmatory screen),[2]; confirmatory screen,-22%
same,Confirm? (confirmatory screen),"[2]; confirmatory screen, YES/NO",YES
same,Curve Class (confirmatory screen),[2]; [10],-2.4
same,IC50,[2]; [11],50.1 µM
same,Efficacy (%),[2]; [6],-40%
same,Curve Class,"[2]; qHTS primary screen hits, Table S2, negative sign = inhibitory curve",-1.2
same,IC50,[2]; [8],20 µM
CCN(CC)CCN(Cc1ccc(-c2ccc(C(F)(F)F)cc2)cc1)C(=O)Cn1c(SCc2ccc(F)cc2)nc(=O)c2c1CCC2 [NCGC00386337-05],Efficacy (%) (counterscreen),[1]; counterscreen,-46%
same,Curve Class (counterscreen),[1]; [9],-2.2
same,IC50,[1]; counterscreen,31.6 µM
same,Efficacy (%) (confirmatory screen),[2]; confirmatory screen,-65%
same,Confirm? (confirmatory screen),"[2]; confirmatory screen, YES/NO",YES
same,Curve Class (confirmatory screen),[2]; [10],-1.2
same,IC50,[2]; [11],35.5 µM
same,Efficacy (%),[2]; [12],-54%
same,Curve Class,[2]; [13],-2.2
same,IC50,[2]; [14],56.2 µM
O=S(=O)(c1ccc2nc(Cl)c(Cl)nc2c1)N1CCN(S(=O)(=O)c2c(F)cccc2F)CC1 [NCGC00182436-01],COUNTERSCREEN Efficacy (%),[1]; scrambled-peptide counterscreen,-18%
same,COUNTERSCREEN Confirm?,"[1]; scrambled-peptide counterscreen, YES/NO call",YES
same,COUNTERSCREEN Curve Class,"[1]; scrambled-peptide counterscreen, qHTS curve class",4
same,CONFIRMATORY SCREEN Confirm?,"[2]; confirmatory screen, YES/NO call",YES
same,CONFIRMATORY SCREEN Curve Class,[2]; [10],-1.4
same,CONFIRMATORY SCREEN Efficacy (%),"[2]; confirmatory screen, negative = inhibition",-43%
same,IC50,"[2]; confirmatory screen, read-out: CONFIRMATORY SCREEN IC50",5.6 µM
same,Efficacy (%),[2]; [6],-32%
same,Curve Class,[2]; [7],-1.4
same,IC50,[2]; [8],2.2 µM
Cc1cc(/N=N/c2ccc(S(=O)(=O)Nc3ccccn3)cc2)c(N)cc1O [NCGC00356068-01],Efficacy (%) (counterscreen),[1]; counterscreen,-44%
same,Curve Class (counterscreen),[1]; [9],-1.2
same,IC50,[1]; counterscreen,44.7 µM
same,Efficacy (%) (confirmatory screen),[2]; confirmatory screen,-64%
same,Confirm? (confirmatory screen),"[2]; confirmatory screen, YES/NO",YES
same,Curve Class (confirmatory screen),[2]; [10],-2.2
same,IC50,[2]; [11],39.8 µM
same,Efficacy (%),[2]; [12],-50%
same,Curve Class,[2]; [13],-2.2
same,IC50,[2]; [14],35.5 µM
COc1ccc(CC(NC(C)=O)C(=O)O)cc1 (stereo not shown) [NCGC00384987-01],Curve Class (counterscreen),[1]; [15],-2.1
same,Efficacy (%) (counterscreen),[1]; [3],-105%
same,IC50,"[1]; Table S3, counterscreen",79.4 µM
same,Confirm? (confirmatory screen),"[2]; Table S3, confirmatory screen, YES/NO call",YES
same,Curve Class (confirmatory screen),[2]; [4],-2.2
same,Efficacy (%) (confirmatory screen),[2]; [5],-65%
same,IC50,"[2]; Table S3, confirmatory screen, read-out: IC50 [μM] (confirmatory screen)",50.1 µM
same,Efficacy (%),[2]; [12],-58%
same,Curve Class,[2]; [13],-2.2
same,IC50,[2]; [14],56.2 µM
Nc1ccc(O)c([N+](=O)[O-])c1 [NCGC00091261-03],Efficacy (%) (counterscreen),[1]; counterscreen,-105%
same,Curve Class (counterscreen),[1]; [9],-2.1
same,IC50,[1]; counterscreen,63.1 µM
same,Efficacy (%) (confirmatory screen),[2]; confirmatory screen,-127%
same,Confirm? (confirmatory screen),"[2]; confirmatory screen, YES/NO",YES
same,Curve Class (confirmatory screen),[2]; [10],-1.1
same,IC50,[2]; [11],50.1 µM
same,Efficacy (%),[2]; [12],-59%
same,Curve Class,[2]; [13],-2.2
same,IC50,[2]; [14],113 µM
NC(=O)C1CCN(c2nc(-c3ccccc3N)cs2)CC1.O=C(O)C(F)(F)F [NCGC00183555-01],Confirm? (counterscreen),"[1]; Table S3, counterscreen, YES/NO call",YES
same,Curve Class (counterscreen),[1]; [15],-1.4
same,Efficacy (%) (counterscreen),[1]; [3],-31%
same,IC50,"[1]; Table S3, counterscreen",28.2 µM
same,Curve Class (confirmatory screen),[2]; [4],4
same,Efficacy (%) (confirmatory screen),[2]; [5],-21%
same,Efficacy (%),[2]; [6],-77%
same,Curve Class,[2]; [7],-2.2
same,IC50,[2]; [8],39.8 µM
Cn1c(NC2=NC3(CCCC3)C3=C(CCCC3=O)N2)nc2ccccc21.O=C(O)C(F)(F)F [NCGC00188583-01],Efficacy (%) (counterscreen),[1]; counterscreen,-13%
same,Confirm? (counterscreen),"[1]; counterscreen, YES/NO",YES
same,Curve Class (counterscreen),[1]; [9],4
same,Efficacy (%) (confirmatory screen),[2]; confirmatory screen,-31%
same,Confirm? (confirmatory screen),"[2]; confirmatory screen, YES/NO",YES
same,Curve Class (confirmatory screen),[2]; [10],-2.4
same,IC50,[2]; [11],89.1 µM
same,Efficacy (%),[2]; [12],-27%
same,IC50,[2]; [14],7.1 µM
NS(=O)(=O)c1ccc(Cc2cn(-c3nc(C(=O)O)cs3)nc2-c2ccc(F)c(F)c2)cc1.O=C(O)C(F)(F)F [NCGC00356753-01],Efficacy (%) (counterscreen),[1]; [3],54%
same,IC50,"[1]; Table S3, counterscreen",56.2 µM
same,Curve Class (confirmatory screen),[2]; [4],4
same,Efficacy (%) (confirmatory screen),[2]; [5],-27%
same,Efficacy (%),[2]; [6],-29%
same,Curve Class,[2]; [7],-2.4
same,IC50,[2]; [8],31.6 µM
O=C(O)C(F)(F)F.O=S(=O)(Nc1nc2ccccc2s1)c1ccc(NCc2ccc(Br)cc2O)cc1 [NCGC00319026-01],Efficacy (%) (counterscreen),[1]; counterscreen,-15%
same,Confirm? (counterscreen),"[1]; counterscreen, YES/NO",YES
same,Curve Class (counterscreen),[1]; [9],4
same,Efficacy (%) (confirmatory screen),[2]; confirmatory screen,-45%
same,Confirm? (confirmatory screen),"[2]; confirmatory screen, YES/NO",YES
same,Curve Class (confirmatory screen),[2]; [10],-2.4
same,Efficacy (%),[2]; [12],-50%
same,Curve Class,[2]; [13],-2.2
same,IC50,[2]; [14],39.8 µM
O=C1c2cccc(O)c2C(=O)c2c(O)cccc21 [NCGC00091367-05],Efficacy (%) (counterscreen),[1]; counterscreen,-17%
same,Confirm? (counterscreen),"[1]; counterscreen, YES/NO",YES
same,Curve Class (counterscreen),[1]; [9],4
C=C1C(=O)OC2/C=C(\C)CC/C=C(\C)CC(OC(C)=O)C12 (stereo not shown) [NCGC00385946-01],Efficacy (%),[2]; [16],-21%
same,Curve Class,[2]; [17],-1.4
same,IC50,[2]; [18],11.2 µM
O=c1c(-c2ccc(O)cc2)coc2cc(O)ccc12 [NCGC00261097-01],Efficacy (%),[2]; [16],-11%
same,Curve Class,[2]; [17],-2.4
same,IC50,[2]; [18],56.2 µM
COc1cc(N2CCC(N3CCN(C)CC3)CC2)ccc1Nc1ncc(Cl)c(-c2c[nH]c3ccccc23)n1 [NCGC00390583-01],Efficacy (%),[2]; [16],-31%
same,Curve Class,[2]; [17],-2.4
same,IC50,[2]; [18],50.1 µM
